From patent US11116851B2, “Anti-cancer and anti-inflammatory therapeutics and methods thereof” (University of Massachusetts, priority 2015, dated 2021)

What was measured:
[1] = test system: PC3 cells; assay: PC3 cell proliferation with Tet-inducible IBS or DKK3 constructs; assay type: cell-based; settings: limited antibiotic induction of Tet-inducible construct
Source text: The relationship between IBS and the Wnt/β-catenin signaling pathway was defined by cell proliferation, promoter-driven reporter assays, and cell migration analysis. Limited antibiotic induction of Tet-inducible IBS or DKK3 constructs was used to avoid the untoward effects of over-expression. […] (Veeck et al. 2012 Biochim Biophys Acta 1825, 18-28; Hsieh et al. 2004 Oncogene 23, 9183-9189; Abarzua et al 2005 Cancer Res 65, 9617-9622; Edamura et al. 2007 Cancer Gene Ther 14, 765-772.)

[2] = target: native, unphosphorylated β-catenin (UniProt P35222); assay: cell-based or functional assay
[3] = test system: human ovarian, pancreatic, and colon cancers; assay: Tumor growth in tumor bearing PDX-mice; assay type: in vivo, mouse
Source text: (§1) Delivery of this intracellular tumor suppressor to the cytoplasm of the cancer cell is essential to achieve the cancer cell growth arrest and apoptosis. First attempts were made by fusing a variant of the cell penetrating peptide-TAT.

[4] = in vivo
Source text: as §1

[5] = test system: PC3 cells; assay: PC3 cell proliferation after TAT-fusion protein/peptide; assay type: cell-based
Protocol: (§2) Over-expression of DKK3 in cancer cells initiates c-Jun Kinase (JNK) mediated apoptosis. (Abarzua et al. 2005 Cancer Res 65, 9617-9622; Kawasaki et al. 2009 Cancer Gene Ther 16, 65-72.) IBS and the JNK inhibitor, TAT-JBD were introduced into PC3 cells as TAT-fusion protein and peptide, respectively, and cell proliferation was measured after 3 days. […] Pro-apoptotic levels of cleaved Caspase 3 increased in TAT-IBS treated cells and this increase was blocked by inhibition of JNK activity (FIG. 8d). […] (Veeck et al. 2012 Biochim Biophys Acta 1825, 18-28; Abarzua et al. 2005 Cancer Res 65, 9617-9622.)

[6] = test system: Cleaved Caspase 3; assay: Cleaved Caspase 3 in PC3 cells; assay type: cell-based
Protocol: as §2

[7] = test system: HEK293 cells; assay: Basal and Wnt stimulated proliferation of HEK293 cells; assay type: cell-based; settings: HEK293, highest concentration tested
Source text: The impact of IBS on basal and Wnt stimulated cell proliferation was then examined in immortalized HEK293 cells (FIG. 9a). […] The more robust silencing by TAT-IBS is likely due to the universal delivery of this regulator to the cell monolayer.

[8] = test system: β-catenin; assay: Tcf-luciferase promoter reporter assay; assay type: cell-based; settings: Wnt1 co-transfected cells, treated 24 h
Protocol: Primary and downstream promoter-luciferase reporter assays were used to explore the interaction between IBS and β-catenin-driven gene expression. Cells were co-transfected with Wntl and promoter-driven luciferase constructs and treated with TAT-IBS for 24 h. […] The ability of IBS to modulate two downstream β-catenin modulated pathways that reduce cell adhesion (ECad) and promote cell cycle progression (E2F) was also examined. […] Motile MDA-MB-231 cells were used to examine the effect of IBS on β-catenin dependent cell migration. IBS slowed malignant cell migration by >60% (FIG. 9d).

[9] = test system: NF-κB (p65); assay: NF-κB (p65)-responsive promoter luciferase reporter in HEK293 cells; assay type: cell-based; settings: HEK293 cells stimulated by Wnt-1 transfection
Source text: (§3) FIG. 23. TAT-IBS antagonizes primary and secondary β-catenin and NF-κB-dependent gene expression. A) TAT-IBS blocks an NF-κB (p65)-responsive promoter driving luciferase reporter in HEK293 cells that was stimulated by Wnt-1 transfection (shaded bars). […] C) (Data previously disclosed in UMMC 12-40PR2). TAT-IBS restores E-Cadherin (CDH1)-promoter activity in Wnt-1 stimulated cells (middle chart). TopFlash and E2F-luciferase reporters are dependent on β-TrCP substrates, β-catenin and E2F, respectively (top and bottom charts). TAT-IBS blocks transcriptional activation by Wnt-1 stimulation of both reporters. DKK3b fused to an N-terminal cell penetrating peptide, a protein construct we refer to as TAT-IBS (a.k.a. cpIBS), regulates the activity of promoter elements that depend upon the nuclear translocation of β-TrCP target substrates (FIG. 23) as determined by promoter-luciferase reporter assays. Wnt-1 stimulates transcription regulated by NF-κB (FIG. 23A), β-catenin, and E2F (FIG. 23 C) transcription factor proteins. TAT-IBS treatment blocks this Wnt-1-induced stimulation. In contrast, Wnt-1 down-regulates transcription from promoter elements of two biomarkers of epithelial cellular differentiation, E-cadherin (FIG. 23C) and Elf3 (FIG. 23B). TAT-IBS treatment blocks Wnt-1-induced repression of these two epithelial gene transcripts.

[10] = test system: Elf3; assay: Elf3-luciferase reporter assay; assay type: cell-based; settings: suppressed by Wnt-1 stimulation
Source text: as §3

UniProt P35222, sequence (P35222 2-781 limits assumed): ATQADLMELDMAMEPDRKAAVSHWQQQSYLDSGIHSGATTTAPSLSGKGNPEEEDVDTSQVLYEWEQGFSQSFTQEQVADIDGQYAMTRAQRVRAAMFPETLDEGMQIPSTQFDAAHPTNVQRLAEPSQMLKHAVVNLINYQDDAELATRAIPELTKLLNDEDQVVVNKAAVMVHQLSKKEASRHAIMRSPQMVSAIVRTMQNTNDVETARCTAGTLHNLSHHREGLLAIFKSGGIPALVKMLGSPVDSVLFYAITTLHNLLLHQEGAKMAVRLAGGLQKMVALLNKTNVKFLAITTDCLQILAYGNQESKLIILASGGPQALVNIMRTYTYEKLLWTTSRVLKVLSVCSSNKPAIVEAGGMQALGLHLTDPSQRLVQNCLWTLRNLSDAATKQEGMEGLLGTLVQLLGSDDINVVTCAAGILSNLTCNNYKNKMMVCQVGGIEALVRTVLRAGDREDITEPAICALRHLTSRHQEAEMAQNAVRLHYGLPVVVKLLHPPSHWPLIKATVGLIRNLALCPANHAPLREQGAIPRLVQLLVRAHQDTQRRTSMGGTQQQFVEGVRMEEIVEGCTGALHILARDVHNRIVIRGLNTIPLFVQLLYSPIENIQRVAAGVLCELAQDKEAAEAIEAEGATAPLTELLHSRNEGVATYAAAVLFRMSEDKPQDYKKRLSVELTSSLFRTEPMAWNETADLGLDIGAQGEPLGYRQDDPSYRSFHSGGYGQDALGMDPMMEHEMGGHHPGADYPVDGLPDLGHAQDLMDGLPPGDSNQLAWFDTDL

Q: With “DKK3: secreted glycoprotein product of the DKK3 locus” as the substance, how does the PC3 cell proliferation [1] read?
A: Its PC3 cell proliferation is “did not alter the rate of PC3 cell proliferation”.

Q: For “TAT-IBS (DKK3b fused to an N-terminal cell penetrating peptide) (from UniProt Q9UBP4 72-350)”, which nuclear β-catenin level in LiCl-stimulated SOAS-2 and HeLa cells (cell fractionation) (fraction of untreated controls) [2] is on record?
A: The nuclear β-catenin level in LiCl-stimulated SOAS-2 and HeLa cells (cell fractionation) (fraction of untreated controls) was 0.33.

Q: What about the total cell content and distribution of β-catenin (nuclear, cytosolic and microfilament fractions) [2] of the same substance?
A: The total cell content and distribution of β-catenin (nuclear, cytosolic and microfilament fractions) was 3 fold.

Q: Which results are given for “TAT-IBS: DKK3b fused to an N-terminal cell penetrating peptide; bacterially expressed, unfolded fusion protein”?
A: tumor necrosis ([3]; pancreatic, and colon cancers in PDX-mice): led to tumor necrosis; growth of human cancers in PDX-mice ([3]; pancreatic, and colon cancers, bacterially expressed, unfolded protein): arrested growth; effects on biology in the mouse [4]: no effects on any biology in the mouse; loss of the initial cell population ([5]; PC3 cells, after 3 days): > 75%; PC3 cell proliferation ([5]; TAT-fusion protein, measured after 3 days): arrested proliferation; pro-apoptotic levels of cleaved Caspase 3 [6]: increased; Wnt-stimulated cell proliferation [7]: completely eliminated; basal cell proliferation [7]: without altering basal cell proliferation; Wnt stimulated Tcf-luciferase expression [8]: completely arrested; NF-κB (p65)-responsive promoter luciferase reporter [9]: blocks; transcriptional activity of Elf3-luciferase [10]: restores transcriptional activity
